Target: T1, TmPPase (Thermotoga maritima, UniProt Q9S5X0)
T1 construct: gene hppA; N-terminally His6-tagged, plasmid pRS1024, expressed in Saccharomyces cerevisiae BJ1991, OGNPG-solubilised, homodimer
T1 sequence (Q9S5X0 1-726 limits assumed): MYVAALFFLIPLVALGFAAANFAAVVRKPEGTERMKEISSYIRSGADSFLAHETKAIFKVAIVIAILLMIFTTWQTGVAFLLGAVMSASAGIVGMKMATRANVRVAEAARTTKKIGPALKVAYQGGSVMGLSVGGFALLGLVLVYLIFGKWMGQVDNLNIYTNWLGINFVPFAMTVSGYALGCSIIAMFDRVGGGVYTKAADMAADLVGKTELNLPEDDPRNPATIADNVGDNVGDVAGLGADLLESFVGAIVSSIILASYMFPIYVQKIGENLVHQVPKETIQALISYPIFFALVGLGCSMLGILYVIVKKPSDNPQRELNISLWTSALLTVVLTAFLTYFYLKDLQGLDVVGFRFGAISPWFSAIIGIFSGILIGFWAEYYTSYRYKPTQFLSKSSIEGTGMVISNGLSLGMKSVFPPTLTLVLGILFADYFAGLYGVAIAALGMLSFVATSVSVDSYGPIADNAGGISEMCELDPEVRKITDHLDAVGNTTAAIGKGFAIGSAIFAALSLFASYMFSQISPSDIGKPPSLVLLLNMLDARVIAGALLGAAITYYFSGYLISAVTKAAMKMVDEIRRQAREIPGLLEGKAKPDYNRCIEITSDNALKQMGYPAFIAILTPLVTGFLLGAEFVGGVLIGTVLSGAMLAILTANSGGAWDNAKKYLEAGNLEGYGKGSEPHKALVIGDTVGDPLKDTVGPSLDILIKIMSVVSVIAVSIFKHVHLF
Test: X-ray crystallography, […] Å
Format: binding
Conditions: active site, as Mg5IDP complex; Na+ bound at ion gate; pH 8.5 well solution; non-hydrolysable substrate analogue

Compound: O=P(O)(O)NP(=O)(O)O [IDP, imidodiphosphate]
- X-ray crystallography, 3.5 Å: In TmPPase:IDP, an Mg5IDP-complex was fit into the positive Fo–Fc density in the hydrolytic centre

Source: article PMC5150537 (Nature Communications, 2016)
